Measured values taken from the OPERA property sets (Mansouri et al. 2018).
Peptide text beside a SMILES is read from it.

Point of comparison: `Nc1nc(N)nc(-c2ccc(F)cc2)n1`, logP 1.61. Against it:
- CC12CCC(=O)C=C1CCC1C2C(O)CC2(C)C1CCC2(O)C(=O)COC(=O)CCC(N)=O (stereo not drawn) — within 0.2 log units, 1.43
- CC1(C)SC2C(NC(=O)C(C(=O)Oc3ccccc3)c3ccccc3)C(=O)N2C1C(=O)O (stereo not drawn) — higher, 3.14
- CC(C)(C)NC[C@H](O)COc1ccccc1C1CCCC1 — higher, 4.15
- Nc1ccccc1C(F)(F)F — higher, 2.41
- ClC(Cl)(Cl)Cl — higher, 2.83
- Nc1cccnc1 — lower, 0.11
- CC(=O)OCCn1c([N+](=O)[O-])cnc1C — lower, 0.3
- COCCOc1ccccc1 — within 0.2 log units, 1.73
- CC1CC2C3CCC4=CC(=O)C=CC4(C)C3(F)C(=O)CC2(C)C1(O)C(=O)CCl (stereo not drawn) — higher, 2.61
- COc1ccc2c(c1)N(CCCN(C)C)c1ccccc1S2 — higher, 4.9
- Nc1cc2ccccc2nn1 — lower, 1
- COc1cccc2cccnc12 — higher, 1.84
- CN(C)CCN(C)S(=O)(=O)c1ccc(C(C)(C)[N+](=O)[O-])c([N+](=O)[O-])c1 — within 0.2 log units, 1.42
- Cc1cc(C)c2c(c1)C(c1ccccc1)=NCC(=O)N2 — higher, 2.94
- O=[N+]([O-])c1cc[n+]([O-])cc1 — lower, -0.55
- O=C(O)c1c(F)cccc1Cl — higher, 2.11
- CC(=O)OC1C(=O)C2(C)C(O)CC3OCC3(OC(C)=O)C2C(OC(=O)c2ccccc2)C(C)(O)C2(C)CC(OC(=O)C(C)O)C(C)=C12 (stereo not drawn) — within 0.2 log units, 1.52
- CCCCCCCC(=O)OCC(=O)C1(O)CCC2C3CCC4=CC(=O)CCC4(C)C3C(O)CC21C (stereo not drawn) — higher, 5.49
- C1OC1CN1CCN(CC2CO2)CC1 (stereo not drawn) — lower, -0.84
- CCN(CC)CCc1cccnc1 — lower, 1.23
- CCC(Br)C(=O)O (stereo not drawn) — within 0.2 log units, 1.42
- Brc1c(Br)c(Br)c(Br)c(Br)c1Br — higher, 6.07
- COc1ccc(C(c2ccc(OC)cc2)C(Cl)(Cl)Cl)cc1 — higher, 5.08
- CCN(CC)CCN — lower, 0.21
- O=C1CCC(c2ccccc2)(C2CCN(Cc3ccccc3)CC2)C(=O)N1 (stereo not drawn) — higher, 3.55
- c1ccc(-c2ccncn2)cc1 — higher, 1.92
- COC(N)=O — lower, -0.66
- OC(CNCC(O)COc1ccccc1)COc1ccccc1 (stereo not drawn) — higher, 2.52
- COc1ccc2cnccc2c1 — higher, 2.22
- CCCCCCNC(=O)c1ccc(S(N)(=O)=O)cc1 — higher, 2.05
- CCOP(=S)(OCC)SC(CCl)N1C(=O)c2ccccc2C1=O (stereo not drawn) — higher, 4.69
- NC(=O)OCc1ccc(Cl)cc1 — higher, 1.97
- Fc1cc(F)cc(Cn2cc[nH]c2=S)c1 — higher, 1.98
- CCCNC(=O)c1cccnc1 — lower, 0.66
- CC(=O)c1ccc(C(=O)O)cc1 — the same, 1.61
- CC(=O)NO — lower, -1.59
- CCCNCC(C)C — higher, 2.07
- O=C(O)c1cc2ccccc2[nH]1 — higher, 2.31
- CCOC(=O)CC — lower, 1.21
- CC(=O)N[C@@H](C)C(=O)N[C@@H](CC(C)C)C(=O)N[C@H](C(N)=O)C(C)C (Ac-Ala-Leu-Val-NH2) — lower, -0.14
- CC(CN(C)C)CN1c2ccccc2Sc2ccccc21 (stereo not drawn) — higher, 4.71
- O=[N+]([O-])c1cccc(C(F)(F)F)c1 — higher, 2.62
- O=C(O)c1ccccc1Oc1ccccc1 — higher, 3.11
- O=C1C=C(N2CCCC2)C(=O)C=C1N1CCCC1 — higher, 1.97
- CN(O)C(N)=O — lower, -0.46
- CCOCCOC(=O)C(C#N)=C(CC)Nc1ccc(N)cc1 — higher, 2.27
- CCOCOCC — lower, 0.84
- CC1=CC(=O)C=C(Br)C1=O — lower, 1.21
- CCOc1c(NS(=O)(=O)c2ccc(N)cc2)ncnc1OC — lower, 1.03
- CCOC(=O)Nc1ccccc1 — higher, 2.3
- CCN(CC)CCNc1ccc(C)c(Cl)c1 — higher, 4.14
- O=C(O)c1ccc(Cl)cc1[N+](=O)[O-] — higher, 2.08
- O=C(O)Cc1ccccc1O — lower, 0.85
- O=C(O)CNC(=O)c1ccccc1 — lower, 0.31
- ON=CCCc1ccccc1 — within 0.2 log units, 1.56
- CO — lower, -0.77
- CC(=O)Oc1ccccc1 — within 0.2 log units, 1.49
- COc1ccc(CC#N)cc1 — within 0.2 log units, 1.7
- CCOCCO — lower, -0.32
- O=C(O)c1cc(I)cc(I)c1O — higher, 4.56
- CCOC(=O)C(O)c1ccccc1 (stereo not drawn) — within 0.2 log units, 1.53
- O=C(O)c1ccccc1Br — higher, 2.2
- Nc1ccc(C(=O)Oc2ccccc2F)c(O)c1 — higher, 3.29
- Nc1ccc(C(=O)Oc2ccc(Br)cc2)c(O)c1 — higher, 3.46
- COC(=O)Cc1ccccc1 — higher, 1.83
- CC(C)c1cccc(C(C)C)c1NC(N)=O — higher, 2.26
- CC(C)C(=O)OCC1CCC(n2cnc3c(=O)[nH]cnc32)O1 (stereo not drawn) — lower, 0.02
- O=C([O-])c1ccccc1O.[Na+] — lower, -1.43
- CCCNC(C)C(=O)Nc1ccccc1C (stereo not drawn) — higher, 2.11
- CN(C)C(=O)Nc1ccccc1 — lower, 0.98
- NCCNC(=O)c1ccccc1 — lower, 0.06
- O=C(O)C(c1ccc(Cl)cc1)n1cccc1 (stereo not drawn) — higher, 2.3
- FC(F)(F)c1ccccc1N=C1NCCN1 — within 0.2 log units, 1.42
- CC1CN(N=O)CC(C)O1 (stereo not drawn) — lower, 0.32
- CCC(C)C(NCc1ccccc1)C(=O)O (stereo not drawn) — lower, -0.27
- O=C(O)COc1cccc(C(=O)O)c1 — lower, 1.11
- c1cncnc1 — lower, -0.4
- CS/C(C)=N/OC(=O)N(C)SN(C)C(=O)O/N=C(\C)SC — within 0.2 log units, 1.7
- CC(Cl)[N+](=O)[O-] (stereo not drawn) — lower, 1.1
- O=C(O)CCC(=O)c1ccc(-c2ccccc2)cc1 — higher, 3.2
- C=C(C)C — higher, 2.34
- O=C(O)Cc1ccccc1 — lower, 1.41
- Nc1ccc(C(=O)Oc2cccc(Br)c2)c(O)c1 — higher, 3.84
- COP(=O)(OC)SCn1nnc2ccccc2c1=O — lower, 0.78
- CN(C)C(N(C)C)=S(I)c1cc(Cl)ccc1Cl (stereo not drawn) — lower, 0.05
- CC1=NN(CCOc2ccc3ccccc3c2)C(=O)C1 — higher, 2.74
- CC(=O)Nc1ccc(O)c(C)c1C — lower, 0.57
- CCCC(=O)OCC(=O)C1(O)C(C)CC2C3CCC4=CC(=O)C=CC4(C)C3(F)C(O)CC21C (stereo not drawn) — higher, 3.55
- CC(=O)c1ccc([N+](=O)[O-])cc1 — within 0.2 log units, 1.53
- COc1ccc(OC(=O)c2ccc(N)cc2O)cc1 — higher, 3.07
- Clc1ccc2nccnc2c1 — higher, 2.1
- CCCCCC(=O)NN — lower, 0.48
- CCC(C)N(CC(O)COc1ccccc1)CC(O)COc1ccccc1 (stereo not drawn) — higher, 3.46
- COC1OC(=O)c2ccccc21 (stereo not drawn) — lower, 1
- NS(=O)(=O)c1cc2c(cc1C(F)(F)F)NCNS2(=O)=O — lower, 0.36
- O=C(O)c1ccc(N=C=S)cc1 — higher, 3.52
- O=[N+]([O-])c1cc2ccccc2[n+]([O-])c1 — lower, 0.56
- CCOC(=O)[C@H](O)[C@@H](O)C(=O)OCC — lower, -0.29
- Nc1ccc2ccccc2c1 — higher, 2.28
- Clc1ccc(C(c2ccc(Cl)cc2)C(Cl)(Cl)Cl)cc1 — higher, 6.91
- CCC(C)c1ccccc1O (stereo not drawn) — higher, 3.27
- Oc1c(O)c(Cl)c(Cl)c(Cl)c1Cl — higher, 4.29
- NC(N)=O — lower, -2.11
- CCCCC1CC(C(=O)NC(C(C)O)C2OC(SC)C(O)C(O)C2O)N(C)C1 (stereo not drawn) — lower, 0.56
- O=C1CCC(=O)N1c1ccc([N+](=O)[O-])cc1 — lower, 0.46
- CN(C)C(N(C)C)=S(I)c1cccc(Cl)c1Cl (stereo not drawn) — lower, 0.29
- COC(C)=O — lower, 0.18
- CC(C)Nc1nc(NC(C)C)nc(SC(F)F)n1 — higher, 4.25
- CC(=O)OC1(C(=O)CO)CCC2C3CCC4=CC(=O)CCC4(C)C3C(=O)CC21C (stereo not drawn) — higher, 2.45
- CC(=O)Oc1ccccc1C — higher, 1.93
- O=[N+]([O-])c1ccc(OC2OC(CO)C(OC3OC(CO)C(O)C(O)C3O)C(O)C2O)cc1 (stereo not drawn) — lower, -1.39
- CC(=S)N(c1ccccc1)c1ccccc1 — higher, 2.83
- CCOC(=O)C(Cc1ccccc1)C(=O)OCC — higher, 2.76
- CNCCO — lower, -0.94
- CNC(=O)Oc1cccc(OC)c1 — lower, 1.3
- O=Nc1c(Br)cc2ccccc2c1O — higher, 2.93
- C=CC=CCC — higher, 3.16
- O=C(O)C(c1ccc(-c2ccccc2)cc1)C(O)c1cccc(F)c1 (stereo not drawn) — higher, 3.31
- CN1C(=O)C(=O)c2ccccc21 — lower, 0.58
- CC(=O)c1cn(C)c2ccccc12 — higher, 1.95
- CCCNC — lower, 0.84
- O=C(CBr)NC(CO)C(O)c1ccc([N+](=O)[O-])cc1 (stereo not drawn) — lower, 0.66
- Cc1cn(C2OC(CO)C(O)C2O)c(=O)nc1N (stereo not drawn) — lower, -2.01
- CN1CCC(CN2c3ccccc3Sc3ccccc32)C1 (stereo not drawn) — higher, 5.23
- NC(C(=O)OCn1ncc2c(=O)[nH]cnc21)c1ccccc1 (stereo not drawn) — lower, -0.15
- Clc1ccc(-c2c(Cl)cccc2Cl)cc1 — higher, 5.75
- OCc1cccc(C(F)(F)F)c1 — higher, 2.24
- CCC1(CCC(C)C)C(=O)NC(=O)NC1=O — higher, 2.07
- CCCCCOC(=O)Nc1ccccc1 — higher, 3.8
- CC12CCC(=O)C=C1CCC1C2C(O)CC2(C)C1CCC2(O)C(=O)COC(=O)CCCCCC(=O)O (stereo not drawn) — higher, 3.26
- O=c1[nH]c(=O)n([C@H]2C[C@H](O)[C@@H](CO)O2)cc1F — lower, -1.16
- CCCCC(NC(C)=O)C(=O)OC (stereo not drawn) — lower, 0.79
- NNC(=O)c1cccc(Br)c1 — lower, 1.26
- CNC(=O)OC — lower, -0.06
- Cc1cc2[nH]c(=O)c(=O)[nH]c2cc1C — lower, 1.34
- CCN(CC)N=O — lower, 0.48
- NS(=O)(=O)c1ccc(Br)cc1 — lower, 1.36
- CC(=O)[C@@]1(O)CC[C@H]2[C@@H]3C[C@H](C)C4=CC(=O)C=C[C@]4(C)[C@@]3(F)[C@@H](O)C[C@@]21C — higher, 2
- O=C(O)COc1ccc(Br)cc1 — higher, 2.45
- CNC(=O)Oc1ccc(SC)c(C)c1 — higher, 2.47
- Cc1ccc(OC(=O)N(C)C)cc1 — higher, 2.03
- COc1ccc(N(C)C)cc1 — within 0.2 log units, 1.42
- c1ccc2nc3ccccc3cc2c1 — higher, 3.4
- CNC1=C(N2CC2)C(=O)C(NC)=C(N2CC2)C1=O — lower, 0.13
- CNC(=O)c1ccccc1C(=O)c1ccccc1 — higher, 2.09
- CC(=O)OCc1coc(Cc2ccccc2)c1 — higher, 3.24
- CCCCCC1=Nc2cc(Cl)c(S(N)(=O)=O)cc2S(=O)(=O)N1 — higher, 2.01
- O=[N+]([O-])c1cccnc1 — lower, 0.6
- C=C1C[C@]23C[C@@]1(O)CC[C@H]2[C@@]12C=C[C@H](O)[C@@](C)(C(=O)O1)[C@H]2[C@@H]3C(=O)O — lower, 0.24
- CN(C)c1ccc2c(c1)C(=O)N(O)C2=O — lower, 1.27
- CCN(N=O)C(N)=O — lower, 0.23
- Cc1cccc2c(C)cccc12 — higher, 4.38
- CC1(C)O[C@@H]2C[C@H]3[C@@H]4CCC5=CC(=O)C=C[C@]5(C)[C@@]4(F)[C@@H](O)C[C@]3(C)[C@]2(C(=O)CO)O1 — higher, 2.53
- Cc1cnc(C)cn1 — lower, 0.63
- CC(=O)OC(C)(C)C — within 0.2 log units, 1.76
- Oc1ccc(-c2ccccc2)cc1 — higher, 3.2
- COc1cc(OC)cc(C(=O)O)c1 — higher, 2.19
